Where “and” joins values, the source holds several entries; their conditions need not be identical. Equal values may be shown once. Read-outs that look alike come from different tables or passages of the source.
Tested on: Pol I transcription
Assay: Inhibition of Pol I transcription: 47S precursor rRNA levels by quantitative RT-PCR after 1 h treatment
Assay type: cell-based, human
Conditions: for 47S precursor rRNA level, fold change relative to vehicle-treated controls: individual replicates; for IC50: Homo sapiens
Protocol: Fig. 1 Sensitivity of ovarian cancer (OVCA) cell lines to CX-5461. a CX-5461 doses that induce 50% growth inhibition (GI50) at 48 hours. Error bars represent mean ± standard deviation (SD). Asterisks denote mutated TP53 status. […] Information regarding each cell lines source, mean G1_50 values, SD and N values are outlined in Supplementary Table 1. […] Statistical analysis was performed using a two-sided Mann–Whitney test. Error bars represent mean ± SD. c Baseline rDNA transcription rates of OVCA cell lines (listed in (d)), as determined by quantitative real-time PCR (qRT-PCR) analysis using primers specific to the external transcribed spacer 5’ETS (+413–521 bp) relative to the transcription start site (TSS). Expression levels in each cell line were normalised to Vimentin mRNA and expressed as fold change relative to TOV112D cells. Each dot represents the mean value of n = 3 biologically independent experiments per cell line (Individual data points are provided in Supplementary Data 4). Error bars represent mean ± SD. Statistical analysis was performed using a two-tailed unpaired t test. d Dose-response curves of 47S precursor rRNA levels measured by quantitative RT-PCR. OVCA cell lines were treated with vehicle or increasing drug concentrations of CX-5461 (0.001, 0.01, 0.03, 0.1, 0.3, 1 and 3 μM) for 1 h before RNA was harvested. Expression levels were normalised to Vimentin mRNA and expressed as fold change relative to vehicle-treated controls. Shown are the mean of n = 3 independent biological experiments for each cell line. (Individual data points are provided in Supplementary Data 4). e The mean inhibitory concentration values that led to 50% transcription inhibition (IC50) (of n = 3 biologically independent experiments for each cell line) from D are presented (Individual data points are provided in Supplementary Data 4). Error bars represent mean ± SD. Statistical analysis was performed using a two-sided Mann–Whitney test.
For Reverse-transcription qPCR analysis, cells were lysed, RNA extracted, and first-strand cDNA synthesized using random hexamer primers (Promega, C1181) and Superscript III (Invitrogen,18080044). Quantitative PCR (qPCR) was performed in duplicate using the FAST SYBR Green dye (Applied Biosystems, 4385610) on the StepOnePlus real-time PCR system (Applied Biosystems). Primer sequences are listed in (Supplementary Table 3).
Dose-response curves of 4 7S precursor rRNA levels (Figure 1D) measured by quantitative RT-PCR after 1h treatment. Expression levels
were normalised to Vimentin mRNA and expressed as fold change relative to vehicle-treated controls.
IC50 doses (Figure 1E) were determined from dose response curves in Figure 1D
using GraphPad Prism version 8.

`Cc1cnc(CNC(=O)c2c(=O)c3ccc(N4CCCN(C)CC4)nc3n3c2sc2ccccc23)cn1` [CX-5461] was tested, and the “47S precursor rRNA level, fold change relative to vehicle-treated controls” value (A2780, CX-5461 0.00000001 M, 1 h) was 1.227 and 1.156 and 0.5552, the “47S precursor rRNA level, fold change relative to vehicle-treated controls” value (A2780, CX-5461 0.00000003 M, 1 h) was 1.079 and 0.6056 and 0.5354 and the “47S precursor rRNA level, fold change relative to vehicle-treated controls” value (A2780, CX-5461 0.0000001 M, 1 h) was 0.7784 and 0.3051 and 0.7248. The “47S precursor rRNA level, fold change relative to vehicle-treated controls” value (A2780, CX-5461 0.0000003 M, 1 h) was 0.4946 and 0.2868 and 0.2848, the “47S precursor rRNA level, fold change relative to vehicle-treated controls” value (A2780, CX-5461 0.000001 M, 1 h) was 0.1884 and 0.1928 and 0.2616 and the “47S precursor rRNA level, fold change relative to vehicle-treated controls” value (A2780, CX-5461 0.000003 M, 1 h) was 0.1746 and 0.05092 and 0.1316. For the same molecule, the “47S precursor rRNA level, fold change relative to vehicle-treated controls” value (A2780, CX-5461 1E-09 M, 1 h) was 1.211 and 0.7921 and 0.6449, the “47S precursor rRNA level, fold change relative to vehicle-treated controls” value (EFO21, CX-5461 0.00000001 M, 1 h) was 1.115 and 1.095 and 1.792 and the “47S precursor rRNA level, fold change relative to vehicle-treated controls” value (EFO21, CX-5461 0.00000003 M, 1 h) was 1.11 and 1.692 and 0.987. The “47S precursor rRNA level, fold change relative to vehicle-treated controls” value (EFO21, CX-5461 0.0000001 M, 1 h) was 0.7444 and 0.9773 and 0.668, the “47S precursor rRNA level, fold change relative to vehicle-treated controls” value (EFO21, CX-5461 0.0000003 M, 1 h) was 0.2419 and 0.3103 and 0.414 and the “47S precursor rRNA level, fold change relative to vehicle-treated controls” value (EFO21, CX-5461 0.000001 M, 1 h) was 0.2002 and 0.2399 and 0.3839. For the same molecule, the “47S precursor rRNA level, fold change relative to vehicle-treated controls” value (EFO21, CX-5461 0.000003 M, 1 h) was 0.1871 and 0.2673 and 0.0006867, the “47S precursor rRNA level, fold change relative to vehicle-treated controls” value (EFO21, CX-5461 1E-09 M, 1 h) was 1.492 and 1.313 and 0.8129 and the IC50 (1 h, 2008, 1 h, mean n=3, read-out: IC50 Pol I transcription) was 48.8 nM. For the same molecule, the IC50 (1 h, ES2, 1 h, mean n=3, read-out: IC50 Pol I transcription) was 55.1 nM, the IC50 (1 h, JHOC9, 1 h, mean n=3, read-out: IC50 Pol I transcription) was 268 nM and the IC50 (1 h, JHOM1, 1 h, mean n=3, read-out: IC50 Pol I transcription) was 202 nM. The IC50 (1 h, KURAMOCHI, 1 h, mean n=3, read-out: IC50 Pol I transcription) was 47.8 nM, the IC50 (1 h, RMG2, 1 h, mean n=3, read-out: IC50 Pol I transcription) was 114 nM and the IC50 (1 h, sensitive and resistant OVCA cell lines, 1 h treatment, read-out: IC50 (concentration inhibiting Pol I transcription by 50%), range over cell lines) was 38 to 285 nM. It also gave an IC50 (A2780, 1 h, mean n=3, read-out: IC50 Pol I transcription) of 63.3 nM, an IC50 (COLO 704, 1 h, COLO704, 1 h, mean n=3, read-out: IC50 Pol I transcription) of 96.8 nM and an IC50 (EFO-21, 1 h, EFO21, 1 h, mean n=3, read-out: IC50 Pol I transcription) of 65.4 nM. For the same molecule, the IC50 (IGROV-1, 1 h, IGROV1, 1 h, mean n=3, read-out: IC50 Pol I transcription) was 38.4 nM, the IC50 (OV-90, 1 h, OV90, 1 h, mean n=3, read-out: IC50 Pol I transcription) was 117 nM and the IC50 (OVCAR-3, 1 h, OVCAR3, 1 h, mean n=3, read-out: IC50 Pol I transcription) was 67.4 nM. For the same molecule, the IC50 (OVCAR-4, 1 h, OVCAR4, 1 h, mean n=3, read-out: IC50 Pol I transcription) was 88.5 nM, the IC50 (OVCAR-8, 1 h, OVCAR8, 1 h, mean n=3, read-out: IC50 Pol I transcription) was 97.6 nM and the IC50 (TOV112D, 1 h, TOV112D, 1 h, mean n=3, read-out: IC50 Pol I transcription) was 134 nM. For the same molecule, the “47S precursor rRNA level, fold change relative to vehicle-treated controls” value (JHOC9, CX-5461 0.00000001 M, 1 h) was 0.9254 and 0.9049 and 1.002, the “47S precursor rRNA level, fold change relative to vehicle-treated controls” value (JHOC9, CX-5461 0.00000003 M, 1 h) was 1.057 and 1.034 and 0.8359 and the “47S precursor rRNA level, fold change relative to vehicle-treated controls” value (JHOC9, CX-5461 0.0000001 M, 1 h) was 0.8119 and 0.7939 and 0.6945. For the same molecule, the “47S precursor rRNA level, fold change relative to vehicle-treated controls” value (JHOC9, CX-5461 0.0000003 M, 1 h) was 0.5763 and 0.5636 and 0.384, the “47S precursor rRNA level, fold change relative to vehicle-treated controls” value (JHOC9, CX-5461 0.000001 M, 1 h) was 0.3587 and 0.3508 and 0.2158 and the “47S precursor rRNA level, fold change relative to vehicle-treated controls” value (JHOC9, CX-5461 0.000003 M, 1 h) was 0.08402 and 0.08216 and 0.06114. The “47S precursor rRNA level, fold change relative to vehicle-treated controls” value (JHOC9, CX-5461 1E-09 M, 1 h) was 1.047 and 1.024 and 0.8051, the “47S precursor rRNA level, fold change relative to vehicle-treated controls” value (OV90, CX-5461 1E-09 M, 1 h) was 1.356 and the “47S precursor rRNA level, fold change relative to vehicle-treated controls” value (RMG2, CX-5461 0.00000001 M, 1 h) was 1.019 and 0.9292 and 0.7914. The “47S precursor rRNA level, fold change relative to vehicle-treated controls” value (RMG2, CX-5461 0.00000003 M, 1 h) was 0.8882 and 0.4552 and 0.4564, the “47S precursor rRNA level, fold change relative to vehicle-treated controls” value (RMG2, CX-5461 0.0000001 M, 1 h) was 0.8694 and 0.414 and 0.3672 and the “47S precursor rRNA level, fold change relative to vehicle-treated controls” value (RMG2, CX-5461 0.0000003 M, 1 h) was 0.5159 and 0.1241 and 0.09886. For the same molecule, the “47S precursor rRNA level, fold change relative to vehicle-treated controls” value (RMG2, CX-5461 0.000001 M, 1 h) was 0.2164 and 0.1124 and 0.1026, the “47S precursor rRNA level, fold change relative to vehicle-treated controls” value (RMG2, CX-5461 0.000003 M, 1 h) was 0.06697 and 0.02897 and 0.03341 and the “47S precursor rRNA level, fold change relative to vehicle-treated controls” value (RMG2, CX-5461 1E-09 M, 1 h) was 0.7818 and 0.717 and 0.6208. For the same molecule, the “47S precursor rRNA level, fold change relative to vehicle-treated controls” value (TOV112D, CX-5461 0.00000001 M, 1 h) was 1.178 and 0.9492, the “47S precursor rRNA level, fold change relative to vehicle-treated controls” value (TOV112D, CX-5461 0.00000003 M, 1 h) was 0.9271 and the “47S precursor rRNA level, fold change relative to vehicle-treated controls” value (TOV112D, CX-5461 0.0000001 M, 1 h) was 1.01. For the same molecule, the “47S precursor rRNA level, fold change relative to vehicle-treated controls” value (TOV112D, CX-5461 0.0000003 M, 1 h) was 0.388 and 0.509, the “47S precursor rRNA level, fold change relative to vehicle-treated controls” value (TOV112D, CX-5461 0.000001 M, 1 h) was 0.1661 and 0.2245 and 0.333 and the “47S precursor rRNA level, fold change relative to vehicle-treated controls” value (TOV112D, CX-5461 0.000003 M, 1 h) was 0.1644 and 0.0787 and 0.1952. For the same molecule, the “47S precursor rRNA level, fold change relative to vehicle-treated controls” value (TOV112D, CX-5461 1E-09 M, 1 h) was 1.079 and 1.012 and 1.217.
